The numbers were not newly measured in patent publication US20140187635A1, “DICLOFENAC COMPOSITIONS” (THEMIS MEDICARE LIMITED, priority 2012, published 2014), which cites them from elsewhere.

The structures appear in SMILES notation. Where two headings read alike, the source gives them in different places.

One data set relates to rat. As to conditions: in vivo, iv.
For a further data set, the system named is Dog. As to conditions: intravenous.
For a further data set, the system named is rabbit. As to conditions: intravenous.

On to `CCOCCOCCO` [Transcutol, diethylene glycol monoethyl ether], for which the LD50 with rat is 4 g/kg; with Dog it was 3 mL/kg; with mouse (in vivo, ip) it was 2300 mg/kg; in the data set with mouse (intravenous), 4300 µL/kg; with rabbit, 2500 µL/kg. Further, the “LD50 (subcutaneous: mouse)” value in the data set with mouse (subcutaneous) was 5500 µL/kg. Also, in the data set with eyes: rabbit, the “eyes: rabbit” value is 500 mg.
